Holding throughout (assay type): biochemical
One assay addresses T1, TYK2 (Homo sapiens, UniProt P29597).
T1 construct: made in house; host or cells: SF9 insect cells (baculovirus)
T1 sequence (P29597 873-1187): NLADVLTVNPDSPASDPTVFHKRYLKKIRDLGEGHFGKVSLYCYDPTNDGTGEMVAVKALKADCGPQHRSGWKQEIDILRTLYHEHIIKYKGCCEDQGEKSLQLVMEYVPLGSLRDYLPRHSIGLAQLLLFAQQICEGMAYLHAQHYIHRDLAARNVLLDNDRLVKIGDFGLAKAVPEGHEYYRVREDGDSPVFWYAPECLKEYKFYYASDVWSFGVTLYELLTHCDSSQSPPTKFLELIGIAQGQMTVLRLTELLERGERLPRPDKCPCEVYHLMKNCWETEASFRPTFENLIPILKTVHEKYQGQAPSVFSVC
The experiment in a line: TYK2 inhibition (Table 4).

The next assay addresses T2, JAK1 (Homo sapiens, UniProt P23458).
T2 construct: made in house; host or cells: SF9 insect cells (baculovirus)
As to the kind of experiment: JAK1 inhibition (Table 4). Particulars: read-out: JAK1 Ki.

For the next assay, the target named is T3, JAK3 (Homo sapiens, UniProt P52333).
T3 construct: made in house; host or cells: SF9 insect cells (baculovirus)
T3 sequence (P52333 783-1124): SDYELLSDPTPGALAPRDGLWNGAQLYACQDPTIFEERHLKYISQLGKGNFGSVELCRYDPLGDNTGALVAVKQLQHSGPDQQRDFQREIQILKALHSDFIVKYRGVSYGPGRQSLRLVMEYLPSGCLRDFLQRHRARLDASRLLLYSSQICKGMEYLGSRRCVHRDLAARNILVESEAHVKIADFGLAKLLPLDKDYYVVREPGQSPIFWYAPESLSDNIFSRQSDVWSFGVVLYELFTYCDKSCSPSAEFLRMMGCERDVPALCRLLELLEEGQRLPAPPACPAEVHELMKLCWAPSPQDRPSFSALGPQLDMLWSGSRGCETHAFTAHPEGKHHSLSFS
As to the kind of experiment: JAK3 inhibition (Table 4). Particulars: read-out: JAK3 Ki.

The target in the next assay is T4, JAK2 (Homo sapiens, UniProt O60674).
T4 construct: made in house; host or cells: SF9 insect cells (baculovirus)
T4 sequence (O60674 812-1132): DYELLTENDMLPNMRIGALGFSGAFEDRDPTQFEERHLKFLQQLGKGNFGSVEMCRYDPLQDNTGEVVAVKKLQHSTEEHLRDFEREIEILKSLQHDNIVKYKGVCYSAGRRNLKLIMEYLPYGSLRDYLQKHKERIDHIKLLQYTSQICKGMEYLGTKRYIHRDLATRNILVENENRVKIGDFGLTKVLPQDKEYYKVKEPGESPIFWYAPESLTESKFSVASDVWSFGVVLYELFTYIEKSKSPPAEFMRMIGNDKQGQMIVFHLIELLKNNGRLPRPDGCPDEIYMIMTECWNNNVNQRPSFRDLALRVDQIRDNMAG
As to the kind of experiment: JAK2 inhibition (Table 4). Particulars: read-out: JAK2 Ki.

The structures appear in SMILES notation.

T2 sequence (P23458 852-1154): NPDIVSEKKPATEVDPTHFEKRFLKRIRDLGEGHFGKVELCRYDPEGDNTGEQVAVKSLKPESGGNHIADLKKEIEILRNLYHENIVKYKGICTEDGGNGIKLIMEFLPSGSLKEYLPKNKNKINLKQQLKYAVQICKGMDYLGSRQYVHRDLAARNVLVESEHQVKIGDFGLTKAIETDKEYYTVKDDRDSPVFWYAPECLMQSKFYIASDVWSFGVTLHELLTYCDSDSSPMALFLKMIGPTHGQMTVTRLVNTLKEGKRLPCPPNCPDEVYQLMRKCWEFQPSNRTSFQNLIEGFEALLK

For `CS(=O)(=O)NCCc1nc2cnc3[nH]ccc3c2n1C1CCN(CCC#N)CC1` [Example 118, N-(2-{1-[1-(2-Cyano-ethyl)-piperidin-4-yl]-1,6-dihydro-1,2,3,5,6-tetraaza-as-indacen-2-yl}-ethyl)-methanesulfonamide], the Ki on TYK2 came to 63.1 nM; at JAK1, 1.94 nM; on JAK3 it was 23.6 nM; on JAK2, 12 nM.
The corresponding values for `COCC(=O)N1CCC(n2c(Cc3conc3C)nc3cnc4[nH]ccc4c32)CC1` [Example 119, 2-Methoxy-1-{4-[2-(3-methyl-isoxazol-4-ylmethyl)-6H-1,2,3,5,6-tetraaza-as-indacen-1-yl]-piperidin-1-yl}-ethanone] are 1030 nM, 77.7 nM, 1160 nM and 1310 nM.
On the same counts, the results for `CCCc1nc2cnc3[nH]ccc3c2n1C1CCN(CCC#N)CC1` [Example 120, 3-[4-(2-Propyl-6H-1,2,3,5,6-tetraaza-as-indacen-1-yl)-piperidin-1-yl]-propionitrile] are 82.1 nM, 5.56 nM, 11.2 nM and 10.3 nM.
On the same counts, the results for `Cc1nc2cnc3[nH]ccc3c2n1C1CC2CCC1C2` (stereo not shown) [Example 121, 1-Bicyclo[2.2.1]hept-2-yl-2-methyl-1,6-dihydro-1,2,3,5,6-tetraaza-as-indacene] are 5.09 nM, 1.01 nM, 9.31 nM and 2.78 nM.
As for `Cc1nc2cnc3[nH]ccc3c2n1C1CC2CCC1C2` (stereo not shown) [Example 121a, 1-Bicyclo[2.2.1]hept-2-yl-2-methyl-1,6-dihydro-1,2,3,5,6-tetraaza-as-indacene], the Ki stood at 2.35 nM on TYK2, 0.32 nM at JAK1, 7.35 nM on JAK3 and 1.8 nM at JAK2.
The corresponding values for `CCc1nc2cnc3[nH]ccc3c2n1C1CCN(C(C)CC#N)CC1` (stereo not shown) [Example 123, 3-[4-(2-Ethyl-6H-1,2,3,5,6-tetraaza-as-indacen-1-yl)-piperidin-1-yl]-butyronitrile] are 31 nM, 3.55 nM, 23.6 nM and 7.14 nM.
Take `CC(C)(C)OC(=O)N1CCC(n2cnc3cnc4[nH]ccc4c32)CC1` [Example 124, 4-(6H-1,2,3,5,6-Tetraaza-as-indacen-1-yl)-piperidine-1-carboxylic acid tert-butyl ester]: the Ki at TYK2 turned out to be 225 nM; on JAK1, 24.5 nM; on JAK3, 845 nM; at JAK2, 33.2 nM.
For the compound `CC(C)(C)OC(=O)N1CCC(C)(n2cnc3cnc4[nH]ccc4c32)CC1` [Example 132, 4-Methyl-4-(6H-1,2,3,5,6-tetraaza-as-indacen-1-yl)-piperidine-1-carboxylic acid tert-butyl ester], the Ki on TYK2 was determined as 696 nM; on JAK1, 25.4 nM; on JAK3, 1120 nM; on JAK2, 193 nM.
Turning to `O=C(N[C@H]1CC[C@H](n2cnc3cnc4[nH]ccc4c32)CC1)OCC1CC1` [Example 140, Trans[4-(6H-1,2,3,5,6-Tetraaza-as-indacen-1-yl)-cyclohexyl]-carbamic acid cyclopropylmethyl ester], the Ki at TYK2 was 78.8 nM; on JAK1, 5.16 nM; at JAK3, 88.1 nM; on JAK2 it was 17.4 nM.
The corresponding values for `O=C(N[C@H]1CC[C@H](n2cnc3cnc4[nH]ccc4c32)CC1)OC1CCNCC1` [Example 141, Trans[4-(6H-1,2,3,5,6-Tetraaza-as-indacen-1-yl)-cyclohexyl]-carbamic acid piperidin-4-yl ester] are 330 nM, 8.44 nM, 393 nM and 23.7 nM.
On the same counts, the results for `CN([C@H]1CC[C@H](n2cnc3cnc4[nH]ccc4c32)CC1)S(C)(=O)=O` [Example 142, Trans N-Methyl-N-[4-(6H-1,2,3,5,6-tetraaza-as-indacen-1-yl)-cyclohexyl]-methanesulfonamide] are 43.7 nM, 4.82 nM, 211 nM and 3.35 nM.
On the same counts, the results for `CC(C)(C)OC(=O)N1CCC[C@H]1C(=O)N1CCC(n2cnc3cnc4[nH]ccc4c32)CC1` [Example 144, (S)-2-[4-(6H-1,2,3,5,6-Tetraaza-as-indacen-1-yl)-piperidine-1-carbonyl]-pyrrolidine-1-carboxylic acid tert-butyl ester] are 3160 nM, 251 nM, 3520 nM and 382 nM.
Regarding `N#CCN1CCC[C@H]1C(=O)N1CCC(n2cnc3cnc4[nH]ccc4c32)CC1` [Example 146, {(S)-2-[4-(6H-1,2,3,5,6-Tetraaza-as-indacen-1-yl)-piperidine-1-carbonyl]-pyrrolidin-1-yl}-acetonitrile], the Ki was determined as 1730 nM on TYK2, 150 nM at JAK1, 2770 nM at JAK3 and 190 nM on JAK2.
On the same counts, the results for `CC(C)(O)[C@H]1CC[C@H](n2cnc3cnc4[nH]ccc4c32)CC1` [Example 148, Trans 2-[4-(6H-1,2,3,5,6-Tetraaza-as-indacen-1-yl)-cyclohexyl]-propan-2-ol] are 12.3 nM, 1.73 nM, 23.8 nM and 1.92 nM.
The corresponding values for `O=C1CCC2(CCC(n3cnc4cnc5[nH]ccc5c43)CC2)N1` (stereo not shown) [Example 152, 8-(6H-1,2,3,5,6-Tetraaza-as-indacen-1-yl)-1-aza-spiro[4.5]decan-2-one] are 13.8 nM, 3.14 nM, 39.7 nM and 4.73 nM.
With `CNC(=O)c1nc2cnc3[nH]ccc3c2n1C1CCN(Cc2ccccc2)CC1` [Example 159, 1-(1-Benzyl-piperidin-4-yl)-1,6-dihydro-1,2,3,5,6-tetraaza-as-indacene-2-carboxylic acid methylamide], the Ki on TYK2 is 2330 nM; on JAK1 it was 20.6 nM; on JAK3, 32.6 nM; at JAK2 it was 23.8 nM.
For the compound `N#CCCN1CCC(n2c(CC(=O)N3CCOCC3)nc3cnc4[nH]ccc4c32)CC1` [Example 160, 3-{4-[2-(2-Morpholin-4-yl-2-oxo-ethyl)-6H-1,2,3,5,6-tetraaza-as-indacen-1-yl]-piperidin-1-yl}-propionitrile], the Ki at TYK2 was 100 nM; on JAK1, 8.43 nM; on JAK3, 10.7 nM; on JAK2, 70.6 nM.
On the same counts, the results for `CC(C)(C)OC(=O)N1CC(c2nc3cnc4[nH]ccc4c3n2C2CCN(Cc3ccccc3)CC2)C1` [Example 161, 3-[1-(1-Benzyl-piperidin-4-yl)-1,6-dihydro-1,2,3,5,6-tetraaza-as-indacen-2-yl]azetidine-1-carboxylic acid tert-butyl ester] are 386 nM, 11.6 nM, 20.5 nM and 31.8 nM.
Regarding `c1ccc(CN2CCC(n3c(C4CNC4)nc4cnc5[nH]ccc5c43)CC2)cc1` [Example 162, 2-Azetidin-3-yl-1-(1-benzyl-piperidin-4-yl)-1,6-dihydro-1,2,3,5,6-tetraaza-as-indacene], the Ki at TYK2 turned out to be 677 nM; at JAK1, 7.45 nM; on JAK3 it was 46.8 nM; at JAK2, 23.1 nM.

Usually Ki stands for the dissociation constant of the complex between target and ligand, obtained from inhibition or displacement.

(Values after patent publication US8461328B2, “Tricyclic heterocyclic compounds, compositions and methods of use thereof” (Genentech, Inc., priority 2010, dated 2013).)
